Assay results: ChEMBL document CHEMBL1201862, “PubChem BioAssay data set” (2004)
Counter-ions that a name gives are not always drawn. One block for each compound: values may come before it. Activity calls are given as the source filed them.

How the values were obtained:
[1] = growth inhibition of PfATP4-mutant resistant parasites – NITD609-resistant line, SYBR Green, dry powder, dose response (AID 1159571); format: functional, cell-based;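 further: parasites synchronized at ring stage by sorbitol before testing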
[2] = blockade of melanocortin 4 receptor signaling – cell-based, plate reader, cherry pick, counter-screen for LGR2 antagonist project, dose response (AID 743444); format: functional;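 further: transfected HEK 293 cells stimulated with alpha-MSH peptide; potency of inhibitors of the alpha-MSH evoked signal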
[3] = P. falciparum Dd2 growth inhibitors, dose response, SYBR Green, cherry-picked samples (AID 1159567); format: functional, cell-based
[4] = A2780 cell killing – plate reader, dry powder samples, cytotoxicity control, dose response (AID 743046); format: functional, cell-based
[5] = toxicity toward HepG2 liver cells – cell-based, plate reader, cherry-pick, antagonist series, cytotoxicity control, dose response (AID 743416); format: functional
[6] = toxicity to human HepG2 hepatoma cells – cell-based, plate reader, dry powder samples, cytotoxicity control, dose response (AID 1159569); format: functional;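 further: inhibitor potency with signal falling toward the positive control level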
[7] = Dd2 malaria parasite growth inhibition potency – SYBR Green, dry powder samples, dose response (AID 1159566); format: functional, cell-based;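 further: potency for growth inhibition with lower SYBR green DNA signal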
[8] = toxicity toward immortalized ovarian surface epithelium – cell-based, plate reader, dry powder samples, cytotoxicity control for PAX8 inhibitor project, dose response (AID 743045); format: functional
[9] = OVCAR-3 cell viability loss – plate reader, dry powder samples, PAX8 inhibitor project, dose response (AID 743044); format: functional, cell-based
[10] = IGROV1 cell killing – plate reader, dry powder samples, PAX8 inhibitor project, dose response (AID 743043); format: functional, cell-based; settings: IGROV-1
[11] = growth inhibition of yeast DHODH-expressing 3D7 parasites – SYBR Green, dry powder samples, dose response (AID 1159570); format: functional, cell-based;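 further: parasite growth measured after 72 hours of compound exposure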
[12] = A549 cell cytotoxicity, dose response, cytotoxicity control, plate reader, cherry-pick, antagonist series (AID 743412); format: functional, cell-based
Paired box protein Pax-8 = Paired box protein Pax-8 (Homo sapiens, UniProt Q06710); test: PAX8 transcriptional activity inhibition in RMG-I – RMG-I cells, luciferase, cherry-pick, dose response (AID 687027); format: functional, cell-based;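 further: luciferase reporter driven by Pax8 target thyroperoxidase promoter measured by SteadyGlo luminescence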
Chain of Paired box protein Pax-8 (Q06710 whole entry): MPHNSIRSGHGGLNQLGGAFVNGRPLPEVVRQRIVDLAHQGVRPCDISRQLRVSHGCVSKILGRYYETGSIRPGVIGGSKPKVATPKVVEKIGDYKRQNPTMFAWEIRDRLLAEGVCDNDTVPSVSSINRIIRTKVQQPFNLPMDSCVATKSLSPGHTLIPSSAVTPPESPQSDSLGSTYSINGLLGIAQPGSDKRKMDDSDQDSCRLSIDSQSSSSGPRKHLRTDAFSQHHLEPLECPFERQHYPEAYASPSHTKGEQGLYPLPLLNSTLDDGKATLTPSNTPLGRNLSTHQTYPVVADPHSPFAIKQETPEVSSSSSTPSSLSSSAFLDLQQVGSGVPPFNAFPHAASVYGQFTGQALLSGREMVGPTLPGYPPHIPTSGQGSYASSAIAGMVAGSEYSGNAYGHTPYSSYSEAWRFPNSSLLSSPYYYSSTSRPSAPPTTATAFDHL

[13] = viability loss in HEK293 cells – cell-based, plate reader, cherry-picked samples, cytotoxicity control, dose response (AID 743446); format: functional
[14] = OVCAR8 cell viability loss – plate reader, dry powder samples, PAX8 project, dose response (AID 743197); format: functional, cell-based; settings: OVCAR-8
[15] = blockers of bursicon-stimulated LGR2 cAMP reporter – cell-based, HEK293, CRE-luciferase reporter, cherry pick, set 2, dose response (AID 743343); format: functional;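 further: transfected cells were stimulated with diluted bursicon conditioned medium after compound addition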
[16] = blockers of HIV-1 envelope-mediated cell-cell fusion – cherry-pick, dose response (AID 652057); format: functional, cell-based
[17] = inhibition of Env-driven cell fusion – HIV entry, plate reader, dry powder, dose response (AID 687023); format: functional, cell-based
[18] = HIV-1 AD8 envelope cell-cell fusion blockers – cherry-pick, dose response (AID 652062); format: functional, cell-based;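 further: luciferase signal from cell-cell fusion driven by HIV-1 clade B AD8 Env; potency is for inhibitors of fusion seen as a drop in luminescence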
[19] = blockers of HIV-1 ZM109 envelope-driven cell-cell fusion – HeLa effector, CEM target cells, luciferase, cherry-pick, dose response (AID 652058); format: functional, cell-based;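 further: luciferase signal from HIV-1 Env mediated cell-cell fusion of effector and target cells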
[20] = Late stage results for the probe development effort to identify inhibitors of Plasmodium falciparum gametocytes: Luminescence-based cell-based high throughput dose response assay to identify inhibitors of viability of late stage Plasmodium falciparum gametocytes.; format: functional
[21] = biological target: T1, Low molecular weight phosphotyrosine protein phosphatase (Homo sapiens, UniProt P24666); test: inhibition of human LMPTP enzyme activity – biochemical, absorbance, pNPP substrate, LMPTP-A isoform, set 2, orthogonal assay, dose response (AID 743308); format: functional
T1 sequence (P24666 whole entry): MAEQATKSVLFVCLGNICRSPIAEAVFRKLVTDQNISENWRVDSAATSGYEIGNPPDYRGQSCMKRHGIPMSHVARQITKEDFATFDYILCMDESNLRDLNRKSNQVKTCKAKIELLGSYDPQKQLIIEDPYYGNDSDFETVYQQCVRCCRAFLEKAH

[22] = biological target: T1, Low molecular weight phosphotyrosine protein phosphatase; test: inhibition of LMPTP-A enzymatic activity – biochemical, OMFP substrate, fluorescence intensity, set 2, dose response (AID 743307); format: functional
[23] = biological target: G-protein coupled receptor 183 (Homo sapiens, UniProt P32249); test: SAR confirmation of small molecule antagonists of the EBI2 receptor via a luminescent beta-arrestin assa.; format: functional
Chain of G-protein coupled receptor 183 (P32249 whole entry): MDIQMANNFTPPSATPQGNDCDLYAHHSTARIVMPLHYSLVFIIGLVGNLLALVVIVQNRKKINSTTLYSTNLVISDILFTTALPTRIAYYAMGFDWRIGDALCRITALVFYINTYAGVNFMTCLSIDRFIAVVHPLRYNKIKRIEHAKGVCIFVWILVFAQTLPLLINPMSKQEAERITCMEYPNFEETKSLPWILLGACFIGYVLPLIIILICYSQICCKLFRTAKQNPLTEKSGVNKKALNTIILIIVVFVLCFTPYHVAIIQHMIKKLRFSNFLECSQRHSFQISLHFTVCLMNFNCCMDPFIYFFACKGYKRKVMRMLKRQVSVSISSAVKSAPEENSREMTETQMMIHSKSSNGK

[24] = IC50 of insulin release inhibition, rat insulinoma INS-1E line, 5 mM glucose, cell-based (AID 1117331); format: functional
cells = format: functional, cell-based; settings: INS-1E

SMILES: N#Cc1cccc(-c2ccc([C@@H]3[C@@H]4CN(C(=O)C5CC5)C[C@H]3N4)cc2)c1
- AC50 [1]: 0.455 µM (active)
- AC50 [2]: 2.49 µM (active)
- AC50 [3]: 0.489 µM (active)
- AC50 [4]: 9.05 µM (active)
- AC50 [5]: 5.88 µM (active)
- AC50 [6]: 2.84 µM (active)
- AC50 [7]: 0.267 µM (active)
- AC50 [8]: 68.8 µM (active)
- AC50 [9]: 12.2 µM (active)
- AC50 [10]: 7.63 µM (active)
- AC50 [11]: 0.405 µM (active)
- AC50 [12]: 1.97 µM (active)
- AC50 (Paired box protein Pax-8): 1.25 µM (active)
- AC50 [13]: 13.1 µM (active)
- AC50 [14]: 4.43 µM (active)
- AC50 [15]: 2.62 µM (active)

SMILES: Cc1noc(C)c1S(=O)(=O)N(C)C[C@@H]1Oc2ccc(NC(=O)Nc3ccccc3)cc2CC(=O)N([C@@H](C)CO)C[C@@H]1C
- AC50 [16]: 19.7 µM (active)
- AC50 [17]: 14.2 µM (active)
- AC50 [18]: 36.9 µM (active)
- AC50 [19]: 15.2 µM (active)

SMILES: O=C(Nc1nccs1)c1cn(-c2ccccc2)nc1-c1ccc(Cl)cc1
- IC50 [20]: > 37.2 µM (inactive)

- IC50 [21]: 12 µM (active)
- IC50 [22]: 5.72 µM (active)
SMILES: CN(C)CCNc1cc(-c2ccccc2)nc2ccccc12

- IC50 [23]: 0.00523 µM (active)
SMILES: O=C(/C=C/c1ccc(Br)cc1)N1CCN(Cc2ccc(Cl)cc2C(F)(F)F)CC1

SMILES: CN(C)CC[C@@H](c1ccc(Br)cc1)c1ccccn1 [DEXBROMPHENIRAMINE MALEATE]
- IC50 [24]: 3.76 µM (active)
- IC50 (cells): 6.37 µM (inactive)
